Results published in patent publication US10369138B2, “Monobactam organic compounds for the treatment of bacterial infections” (Novartis AG, priority 2014, dated 2019).
≈ marks a conversion by molar mass, not a printed value.

What was measured:
E. coli strain 25922 = test: MIC by broth microdilution, E. coli strain 25922; type: cell-based; settings: Escherichia coli, 25922, E. coli strain 25922; read-out: Ec 25922 (MIC)
Method in brief: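 CLSI broth microdilution in cation-adjusted Mueller-Hinton broth, inoculum about 5×10^5 CFU/mL, 10% DMSO from the diluted series, 20 h at 35-37° C. MIC is the lowest concentration preventing visible growth, read by eye and at 600 nm.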

E. coli containing KPC-2 = test: MIC by broth microdilution, E. coli containing KPC-2 (Ec KPC2 Iso); type: cell-based; settings: Escherichia coli, read-out: Ec KPC2 Iso (MIC), E. coli containing KPC-2 (carbapenemase from Klebsiella pneumoniae)
Method in brief: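 Host E. coli BW25113 pspB carrying multicopy pBAD18-kan plasmid with constitutive TEM-promoter KPC-2 expression (periplasmic signal sequence); broth microdilution per CLSI in cation-adjusted Mueller-Hinton broth, inoculum ~5×10^5 CFU/mL, compounds twofold serially diluted from DMSO masters (10% DMSO in dilution series added).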

Structure (SMILES)	MIC (E. coli strain 25922) [mg/L]	MIC (E. coli containing KPC-2) [mg/L]
N=C(N)c1ccc(OC[C@H](O/N=C(\C(=O)N[C@@H]2C(=O)N(S(=O)(=O)O)[C@@H]2Cn2cncn2)c2csc(N)n2)C(=O)O)cc1 [Example 107, (S)-2-(((Z)-(2-(((2R,3S)-2-((1H-1,2,4-triazol-1-yl)methyl)-4-oxo-1-sulfoazetidin-3-yl)amino)-1-(2-aminothiazol-4-yl)-2-oxoethylidene)amino)oxy)-3-(4-carbamimidoylphenoxy)propanoic acid]	0.25 (≈ 0.402 µM)	0.25 (≈ 0.402 µM)
Nc1nc(/C(=N/OC2(C(=O)O)CC2)C(=O)N[C@@H]2C(=O)N(S(=O)(=O)O)[C@@H]2CN2CCNC2=O)cs1 [Example 108, 1-(((Z)-(1-(2-aminothiazol-4-yl)-2-oxo-2-(((3S,4R)-2-oxo-4-((2-oxoimidazolidin-1-yl)methyl)-1-sulfoazetidin-3-yl)amino)ethylidene)amino)oxy)cyclopropanecarboxylic acid]	0.125 (≈ 0.242 µM)	≤ 0.06
NCc1nn(C[C@@H]2[C@H](NC(=O)/C(=N\OC3(C(=O)O)CC3)c3csc(N)n3)C(=O)N2S(=O)(=O)O)nc1CN [Example 109, 1-(((Z)-(1-(2-aminothiazol-4-yl)-2-(((2R,3S)-2-((4,5-bis(aminomethyl)-2H-1,2,3-triazol-2-yl)methyl)-4-oxo-1-sulfoazetidin-3-yl)amino)-2-oxoethylidene)amino)oxy)cyclopropanecarboxylic acid]	0.125 (≈ 0.224 µM)	0.25 (≈ 0.448 µM)
NCCNC(=O)NC[C@@H]1CN(C[C@@H]2[C@H](NC(=O)/C(=N\OC3(C(=O)O)CC3)c3csc(N)n3)C(=O)N2S(=O)(=O)O)C(=O)O1 [Example 111, 1-(((Z)-(2-(((2R,3S)-2-(((R)-5-((3-(2-aminoethyl)ureido)methyl)-2-oxooxazolidin-3-yl)methyl)-4-oxo-1-sulfoazetidin-3-yl)amino)-1-(2-aminothiazol-4-yl)-2-oxoethylidene)amino)oxy)cyclopropanecarboxylic acid]	≤ 0.06	≤ 0.06
Nc1nc(/C(=N/OC2(C(=O)O)CC2)C(=O)N[C@@H]2C(=O)N(S(=O)(=O)O)[C@@H]2Cn2ncc(CNC3CCNCC3)n2)cs1 [Example 112, 1-(((Z)-(1-(2-aminothiazol-4-yl)-2-oxo-2-(((3S,4R)-2-oxo-4-((4-((piperidin-4-ylamino)methyl)-2H-1,2,3-triazol-2-yl)methyl)-1-sulfoazetidin-3-yl)amino)ethylidene)amino)oxy)cyclopropanecarboxylic acid]	0.5 (≈ 0.816 µM)	0.5 (≈ 0.816 µM)
CC(C)(O/N=C(\C(=O)N[C@@H]1C(=O)N(S(=O)(=O)O)[C@@H]1CN1CCC1=O)c1csc(N)n1)C(=O)O [Example 113, 2-(((Z)-(1-(2-aminothiazol-4-yl)-2-oxo-2-(((3S,4R)-2-oxo-4-((2-oxoazetidin-1-yl)methyl)-1-sulfoazetidin-3-yl)amino)ethylidene)amino)oxy)-2-methylpropanoic acid]	4 (≈ 7.93 µM)	4 (≈ 7.93 µM)
N=C(N)NCCCNCc1cnn(C[C@@H]2[C@H](NC(=O)/C(=N\OC3(C(=O)O)CC3)c3csc(N)n3)C(=O)N2S(=O)(=O)O)n1 [Example 114, 1-(((Z)-(1-(2-aminothiazol-4-yl)-2-(((2R,3S)-2-((4-(((3-guanidinopropyl)amino)methyl)-2H-1,2,3-triazol-2-yl)methyl)-4-oxo-1-sulfoazetidin-3-yl)amino)-2-oxoethylidene)amino)oxy)cyclopropanecarboxylic acid]	0.25 (≈ 0.398 µM)	≤ 0.06
CN(CCCN)Cc1cnn(C[C@@H]2[C@H](NC(=O)/C(=N\OC3(C(=O)O)CC3)c3csc(N)n3)C(=O)N2S(=O)(=O)O)n1 [Example 115, 1-(((Z)-(2-(((2R,3S)-2-((4-(((3-aminopropyl)(methyl)amino)methyl)-2H-1,2,3-triazol-2-yl)methyl)-4-oxo-1-sulfoazetidin-3-yl)amino)-1-(2-aminothiazol-4-yl)-2-oxoethylidene)amino)oxy)cyclopropanecarboxylic acid]	0.125 (≈ 0.208 µM)	0.25 (≈ 0.416 µM)
CNCCCNCc1cnn(C[C@@H]2[C@H](NC(=O)/C(=N\OC3(C(=O)O)CC3)c3csc(N)n3)C(=O)N2S(=O)(=O)O)n1 [Example 116, 1-(((Z)-(1-(2-aminothiazol-4-yl)-2-(((2R,3S)-2-((4-(((3-(methylamino)propyl)amino)methyl)-2H-1,2,3-triazol-2-yl)methyl)-4-oxo-1-sulfoazetidin-3-yl)amino)-2-oxoethylidene)amino)oxy)cyclopropanecarboxylic acid]	0.25 (≈ 0.416 µM)	0.125 (≈ 0.208 µM)
CNCCNCc1cnn(C[C@@H]2[C@H](NC(=O)/C(=N\OC3(C(=O)O)CC3)c3csc(N)n3)C(=O)N2S(=O)(=O)O)n1 [Example 117, 1-(((Z)-(1-(2-aminothiazol-4-yl)-2-(((2R,3S)-2-((4-(((2-(methylamino)ethyl)amino)methyl)-2H-1,2,3-triazol-2-yl)methyl)-4-oxo-1-sulfoazetidin-3-yl)amino)-2-oxoethylidene)amino)oxy)cyclopropanecarboxylic acid]	0.5 (≈ 0.852 µM)	1 (≈ 1.7 µM)
NCCCCNCc1cnn(C[C@@H]2[C@H](NC(=O)/C(=N\OC3(C(=O)O)CC3)c3csc(N)n3)C(=O)N2S(=O)(=O)O)n1 [Example 118, 1-(((Z)-(2-(((2R,3S)-2-((4-(((4-aminobutyl)amino)methyl)-2H-1,2,3-triazol-2-yl)methyl)-4-oxo-1-sulfoazetidin-3-yl)amino)-1-(2-aminothiazol-4-yl)-2-oxoethylidene)amino)oxy)cyclopropanecarboxylic acid]	0.5 (≈ 0.832 µM)	0.25 (≈ 0.416 µM)
N=C(NCCCN)NCc1cnn(C[C@@H]2[C@H](NC(=O)/C(=N\OC3(C(=O)O)CC3)c3csc(N)n3)C(=O)N2S(=O)(=O)O)n1 [Example 119, 1-(((Z)-(2-(((2R,3S)-2-((4-((3-(3-aminopropyl)guanidino)methyl)-2H-1,2,3-triazol-2-yl)methyl)-4-oxo-1-sulfoazetidin-3-yl)amino)-1-(2-aminothiazol-4-yl)-2-oxoethylidene)amino)oxy)cyclopropanecarboxylic acid]	0.25 (≈ 0.398 µM)	0.25 (≈ 0.398 µM)
N=C(NCCCN)NCc1cn(C[C@@H]2[C@H](NC(=O)/C(=N\OC3(C(=O)O)CC3)c3csc(N)n3)C(=O)N2S(=O)(=O)O)nn1 [Example 120, 1-(((Z)-(2-(((2R,3S)-2-((4-((3-(3-aminopropyl)guanidino)methyl)-1H-1,2,3-triazol-1-yl)methyl)-4-oxo-1-sulfoazetidin-3-yl)amino)-1-(2-aminothiazol-4-yl)-2-oxoethylidene)amino)oxy)cyclopropanecarboxylic acid]	0.25 (≈ 0.398 µM)	0.5 (≈ 0.795 µM)
CC(C)(O/N=C(\C(=O)N[C@@H]1C(=O)N(S(=O)(=O)O)[C@@H]1CN1C(=O)CCC1=O)c1csc(N)n1)C(=O)O [Example 121, 2-(((Z)-(1-(2-aminothiazol-4-yl)-2-(((2R,3S)-2-((2,5-dioxopyrrolidin-1-yl)methyl)-4-oxo-1-sulfoazetidin-3-yl)amino)-2-oxoethylidene)amino)oxy)-2-methylpropanoic acid]	0.25 (≈ 0.469 µM)	0.25 (≈ 0.469 µM)
C[N+](C)(C)CCCNCc1cnn(C[C@@H]2[C@H](NC(=O)/C(=N\OC3(C(=O)O)CC3)c3csc(N)n3)C(=O)N2S(=O)(=O)O)n1 [Example 123, 3-(((2-(((2R,3S)-3-((Z)-2-(2-aminothiazol-4-yl)-2-((1-carboxycyclopropoxy)imino)acetamido)-4-oxo-1-sulfoazetidin-2-yl)methyl)-2H-1,2,3-triazol-4-yl)methyl)amino)-N,N,N-trimethylpropan-1-aminium]	1	0.5
N=C(NCc1cnn(C[C@@H]2[C@H](NC(=O)/C(=N\OC3(C(=O)O)CC3)c3csc(N)n3)C(=O)N2S(=O)(=O)O)n1)N[C@H]1C[C@H](N)C1 [Example 125, 1-(((Z)-(2-(((2R,3S)-2-((4-((3-((1 r,3R)-3-aminocyclobutyl)guanidino)methyl)-2H-1,2,3-triazol-2-yl)methyl)-4-oxo-1-sulfoazetidin-3-yl)amino)-1-(2-aminothiazol-4-yl)-2-oxoethylidene)amino)oxy)cyclopropanecarboxylic acid]	0.25 (≈ 0.39 µM)	0.5 (≈ 0.78 µM)
N=C(NCc1cnn(C[C@@H]2[C@H](NC(=O)/C(=N\OC3(C(=O)O)CC3)c3csc(N)n3)C(=O)N2S(=O)(=O)O)n1)NCC1CNC1 [Example 126, 1-(((Z)-(1-(2-aminothiazol-4-yl)-2-(((2R,3S)-2-((4-((3-(azetidin-3-ylmethyl)guanidino)methyl)-2H-1,2,3-triazol-2-yl)methyl)-4-oxo-1-sulfoazetidin-3-yl)amino)-2-oxoethylidene)amino)oxy)cyclopropanecarboxylic acid]	0.5 (≈ 0.78 µM)	0.5 (≈ 0.78 µM)
N=C(NCc1cnn(C[C@@H]2[C@H](NC(=O)/C(=N\OC3(C(=O)O)CC3)c3csc(N)n3)C(=O)N2S(=O)(=O)O)n1)N1CC(CN)C1 [Example 127, 1-(((Z)-(2-(((2R,3S)-2-((4-((3-(aminomethyl)azetidine-1-carboximidamido)methyl)-2H-1,2,3-triazol-2-yl)methyl)-4-oxo-1-sulfoazetidin-3-yl)amino)-1-(2-aminothiazol-4-yl)-2-oxoethylidene)amino)oxy)cyclopropanecarboxylic acid]	0.25 (≈ 0.39 µM)	0.25 (≈ 0.39 µM)
N=C(NCc1cnn(C[C@@H]2[C@H](NC(=O)/C(=N\OC3(C(=O)O)CC3)c3csc(N)n3)C(=O)N2S(=O)(=O)O)n1)NC1CCNCC1 [Example 128, 1-(((Z)-(1-(2-aminothiazol-4-yl)-2-oxo-2-(((3S,4R)-2-oxo-4-((4-((3-(piperidin-4-yl)guanidino)methyl)-2H-1,2,3-triazol-2-yl)methyl)-1-sulfoazetidin-3-yl)amino)ethylidene)amino)oxy)cyclopropanecarboxylic acid]	0.5 (≈ 0.764 µM)	1 (≈ 1.53 µM)
